The test system of one assay is Sendai virus. Particulars: cited from earlier work.
The test system of assay [1] is vesicular stomatitis virus. Particulars: cited from earlier work.
Assay [2] relates to heat shock protein of 70 kDa. Kind of assay: Induction of heat shock protein of 70 kDa in HL-60 cells (SDS-PAGE and blotting). The note with it: HL-60 cells, as Table 1. It is filed as cell-based, human. On the procedure:
(1) An RPMI 1640 medium (5 ml) containing 10% of fetal bovine serum which contained 2×10^5 cells/ml of human promyelocytic leukemia cells HL-60 (ATCC CCL-240) was placed in each well of a six-well plate, incubated at 37° C. for 24 hours in the presence of 5% of CO2, then the cyclopentenone described in the referential example L was added thereto to make its final concentration 0, 10, 20, 30, 40, 50, or 100 μM and the incubation was further continued for eight hours more.
After completion of the incubation, cell numbers were counted and the cells were recovered by centrifugation and washed with phosphate-buffered saline (PBS) to prepare cyclopentenone-treated cells. In the meanwhile, cells which were heated at 45° C. for ten minutes followed by subjecting to the same incubation were prepared as well.
The cells treated as such were subjected to an SDS-polyacrylamid gel electrophoresis (SDS-PAGE) by a method mentioned in “Molecular Cloning” [Cold Spring Harbor Laboratory Press, (1989)]. The treated cells were suspended in an SDS-PAGE sample buffer to make the concentration 2.5×10^6 cells/ml, the resulting cell suspension was treated at 100° C. for ten minutes and each 5 μl thereof was applied to two sheets of SDS-PAGE gels (5% stacking gel; 10% separation gel) to conduct anelectrophoresis. One of the gels was Coomassie stained while another gel was subjected to a blotting to a polyvinylidene difluoride transfer membrane (Immobilon™, manufactured by Millipore, catalog no. IPVH000-10). The membrane was subjected to a blocking at 4° C. for one night with Block Ace (manufactured by Dainippon Pharmaceutical; catalog no. UK-B25).
The blocked membrane was made to react with monoclonal antibody HSP 72/73 (Ab-1) (manufactured by Oncogene Research Products, catalog no. HSP01) which would specifically react with heat-induced heat shock protein of 70 kDa and washed with TBS containing 0.05% of Tween 20 followed by further washing with TBS. After that, it was made to react with peroxidase-compounded secondary antibody HRP-Rabbit Anti-Mouse IgG (H+L) (manufactured by Zymed Laboratories, catalog no. 61-6520) and washed by the same manner as in the above operation. The membranes which were treated with primary and secondary antibodies as such were made to react with Renaissance™ (a chemiluminor reagent manufactured by Dupont NEN, catalog no. NEL-100) and photosensitized with an X-ray film to confirm the induction of heat shock protein of 70 kDa.
The result was that, by addition of cyclopentenone (20 to 30 μM), induction of heat shock protein of 70 kDa which is almost same as heat-treated at 45° C. for 10 minutes was confirmed. In Table 1, “+” indicates degree of intensity of induction and the more the numbers of “+”, the more the intensity of induction. Incidentally, “−” means that no induction was noted and “±” means the induction was slight.

Another assay deals with Ad5 dlX [an adenovirus]. Put plainly: Adenovirus hexon protein in HeLa cells treated with cyclopentenone before infection. It is filed as cell-based. The note with it: Examples 2-(2)~(6). Here is the method: After that, the cells were washed with the DMEM containing 5% of fetal bovine serum, then the DMEM containing 5% of fetal bovine serum which contained Ad5 dlX [an adenovirus; Saito, etal.; Journal ofVirology, volume 54, pages 711-719 (1985)] was added to the cells so that the cells were infected therewith and incubation was conducted for 20 hours. […] The medium was discarded, 1 ml of 10% trichloroacetic acid was added to each of the wells and the cells were recovered by a scraper.
Then SDS-PAGE and blotting of the treated cells obtained hereinabove were conducted by the method of Example 1 to detect the expression of hexon proteins of the adenovirus. Incidentally, anti-adenovirus hexon antibody (AB 1056; manufactured by Chemicon International Inc.) was used as the primary antibody.

Assay [3] concerns carcinogenesis caused by a two-stage carcinogenesis on skin. Put plainly: Two-stage (DMBA/TPA) carcinogenesis on skin of mice. It is filed as in vivo, mice of ICR strain. The note with it: mouse, in vivo. On the procedure: Hair on the back of mice of ICR strain (purchased from Nippon SLC; seven weeks age; female) was shaved and DMBA (dimethylbenzanthracene) as an initiator in a form of a solution in acetone was applied thereto at the dose of 50 μg/mouse.
Thus, FIG. 5 is a graph showing the anti-carcinogenic action of the cyclopentenone in which ordinate is a carcinogenic rate while abscissa is time (weeks). In the graph, open triangles, black triangles and open circles stand for a group treated with 2.5 mg of the cyclopentenone per mouse (12 mice in total), a group treated with 0.8 mg of the cyclopentenone per mouse (11 mice in total) and a control group (12 mice in total), respectively.

Each structure is given as a SMILES string.

In the case of `CCCCC[C@H](O)/C=C/[C@H]1C=CC(=O)[C@@H]1CCCCCCC(=O)O` [prostaglandin Al, prostaglandin A1], the “synthesis of HSP70 and HSP90” value in the assay with Sendai virus (animal cells infected with Sendai virus) is “induced”. Also, the “synthesis of virus protein” value in the assay with Sendai virus (during the synthesis of HSP70 is induced) is given as “inhibited”.

Regarding `O=C1C=CCC1` [2-cyclopenten-1-one], in assay [1], the “concentration required for inducing the HSP70” value is recorded as “several hundred”, the “synthesis of HSP70” value is on record as “induces” and the “synthesis of vesicular stomatitis virus protein” value was “inhibits”.

As to `O=C1C=C[C@H](O)[C@H]1O` (single isomer, unassigned) [(+)-cyclopentenone], in assay [2], the “induction of heat shock protein of 70 kDa, compared with the cyclopentenone” value is listed as “Same results”. In addition, the “antiviral activity to adenovirus, compared with the cyclopentenone” value in the assay with Ad5 dlX [an adenovirus] was “Same results”. For the same compound, the “anti-promoter action in two-stage chemical carcinogenesis, compared with the cyclopentenone” value in assay [3] is “same result”.

Turning to `O=C1C=C[C@@H](O)[C@@H]1O` (single isomer, unassigned) [(−)-cyclopentenone], the “induction of heat shock protein of 70 kDa, compared with the cyclopentenone” value in assay [2] is recorded as “Same results”. Moreover, the “antiviral activity to adenovirus, compared with the cyclopentenone” value in the assay with Ad5 dlX [an adenovirus] is reported as “Same results”. Moreover, the “anti-promoter action in two-stage chemical carcinogenesis, compared with the cyclopentenone” value in assay [3] was “same result”.
